Source: patent publication US9834773B2, “Methods and means for metabolic engineering and improved product formation by micro-organisms” (Universiteit Leiden, priority 2006, dated 2017)

How the values were obtained:
[1] = tested on: S. coelicolor M145, M510, M511, M512; test: Pigmented antibiotic (actinorhodin, undecylprodigiosin) production on MM agar plates with or without GlcNAc; assay type: cell-based, Streptomyces coelicolor
Excerpt: FIG. 2. Effect of dasR on development and antibiotic production. (A) Antibiotic production by S. coelicolor M145 and its dasR mutant BAP29 on minimal medium agar plates with or without GlcNAc. […] The latter is in line with our discovery that (i) ActV4A is enhanced in the mutant (FIG. 4) and (ii) the identification of a DasR-bound dre upstream of the pathway-specific activator genes actII-ORF4 for actinorhodin production and redZ for undecylprodigiosin production. Unexpectedly, the dasR mutant grown on minimal media with GlcNAc presents the expression of a yet unchartacterized green pigment. (B) Overexpression of DasR causes developmental arrest. Left, S. coelicolor M145 with control plasmid pUWL-KS; right, the same strain with a plasmid over-expressing dasR (grown for 4 days at 30° C.); note the almost complete lack of aerial hyphae (white) in the strain over-expressing DasR; (C) Scanning electron micrographs of aerial hyphae and spores of S. coelicolor M145 and the dasR mutant BAP29. […] Bars represent 5 μm. (D) Transmission electron micrographs of spores of M145 (left) and BAP29 (right). Arrows indicate the voids between the cell wall and the membrane. FD, full detachment; ID, incomplete detachment.
E. coli DH5α, and BL21(DE3) were used for subcloning and DasR overexpression experiments. S. coelicolor M145, M510 (M145 ΔredD), M511 (M145 ΔactII-IV) and M512 (M145 ΔactII-IV ΔredD) (Floriano and Bibb, 1996) and Streptomzyces lividans 1326 were all obtained from the John Innes Centre strain collection, Streptomyces avermitilis NRRL 8165 (MA-4680), Streptonzyces hygroscopicus ATCC27438, Streptomyces limosus ATCC 19778, Streptomyces rinzosus ATCC 10970, Streptonzyces roseosporus ATCC 31568 and Streptonzyces venezuelae ATCC15439 were obtained from the ATCC strain collection and Streptomyces acrinzycini DSM 40540, Streptomyces cinnanzonensis DSM 40467, Streptomyces clavuligerus NRRL 3585, Streptomyces collinus DSM 40733 and Streptomyces griseus NRRL B2682 from the DSMZ strain collection. The dasR mutant BAP29 (ΔdasR::accC4) was created by replacing the coding region of the gene by the apramycin resistance gene cassette, using plasmid pWHM3, according to a routine procedure (Nothaft et al., 2003). The same strategy was used to create the knock-out mutants for ptsH (BAP1), crr (BAP2), ptsI (BAP3), nagE1 (BAP4), nagE2 (BAP5), and nagE1/E2 (BAP6). BAP1-3 were published previously (Nothaft et al., 2003). S. coelicolor strains were grown at 28° C. using tryptic soy broth without dextrose as complex medium (TSB, Difco) or minimal medium (van Wezel et al., 2005). E. coli cultures were grown in Luria-Bertani broth (LB) at 37° C. Phenotypic characterization of mutants was done on minimal medium agar plates with various carbon sources as indicated in the text (Kieser et al., 2000). Quantification of Act and Red was performed as described previously (Martinez-Costa et al., 1996).
Arguing from the regulatory pathway deduced from the newly extended characterization of the DasR regulon (FIG. 22), we anticipated that DasR-dependent transport and phosphorylation of GlcNAc via the PTS could be a decisive signal to trigger actinorhodin and undecylprodigiosin biosynthesis in S. coelicolor. This hypothesis was tested by plating S. coelicolor M510 (ΔredD), M511 (ΔactII-ORF4) and M512 (ΔredD, ΔactII-ORF4) on MM agar plates with or without GlcNAc. […]

[2] = biological target: DasR (Streptomyces coelicolor, UniProt Q9K492); test: EMSA binding interference experiment: ability of compounds to interfere with binding of DasR to the nagB and crr promoters; conditions: for effect on formation of the complex of DasR with the nagB promoter (EMSA): 10 nM fluorescent probe, 3 μM purified DasR, 500-fold excess of non-specific DNA, 50, 100, 150, and 200 mM compound
Sequence of DasR (Q9K492 whole entry): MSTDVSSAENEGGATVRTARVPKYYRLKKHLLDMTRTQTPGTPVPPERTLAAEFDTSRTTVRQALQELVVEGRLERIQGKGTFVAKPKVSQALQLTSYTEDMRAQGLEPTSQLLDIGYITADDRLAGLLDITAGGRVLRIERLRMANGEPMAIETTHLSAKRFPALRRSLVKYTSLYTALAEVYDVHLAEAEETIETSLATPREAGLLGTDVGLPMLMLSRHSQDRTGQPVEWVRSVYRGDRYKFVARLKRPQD
Experimental: FIG. 12. […] EMSAs were performed with 10 nM fluorescent probe, 3 μM purified DasR, and 500-fold excess of non-specific DNA.
EMSAs were performed with fluorescent probes (10 nM) with an ALF express sequencer (Filee et al., 2001). Purified DasR (3 μM) and 1000-fold excess of non-specific DNA were used in the reaction mixture. Predicted cis-acting elements were taken from the promoter regions of actII-ORF4 (SCO5085; 5′-[…]-3′ (SEQ ID NO:530)), and redZ (SCO5881; 5′-[…]-3′ (SEQ ID NO:531)). Known cis-acting elements upstream of crr (SCO1390; […]-3′ (SEQ ID NO:532)), and crp (SCO3571; 5′-[…]-3′ (SEQ ID NO:533)) were used as positive and negative controls, respectively. The 16 nt dre sites are underlined.
A pivotal question is what is the effector molecule that modulates DasR? As shown in here, many of the targets for DasR relate to the generation (chitinolytic system), transport (PTS^GlcNAc), and metabolism (glycolysis via fructose 6-P) of N-acetylglucosamine. We therefore looked for the inducer among the intermediate molecules that gravitate around aminosugar metabolism. A binding interference experiment was set up where the ability of compounds to interfere with binding of dasR to the nagB and crr promoters was tested. […] The finding that glucosamine-6-P serves as an effector of DasR is explained by its central position at the metabolic crossroads between (GlcNAc)n extracellular degradation, N-acetylglucosamine transport and intracellular metabolism, lipid and nitrogen metabolism, glycolysis, and peptidoglycan synthesis (FIG. 13).

Structure (SMILES): CC(=O)N[C@H]1C(O)O[C@H](CO)[C@@H](O)[C@@H]1O (some centres unmarked) [N-acetylglucosamine]
- induction of the pigmented antibiotics actinorhodin and undecylprodigiosin ([1]; S. coelicolor M145, minimal medium agar plates with or without GlcNAc): required for induction
- production of Act (actinorhodin) ([1]; S. coelicolor M510 (ΔredD), MM agar, GlcNAc 10 mM, five days): induced
- production of Red (undecylprodigiosin) ([1]; S. coelicolor M511 (ΔactII-ORF4), MM agar, GlcNAc 10 mM, five days): induced
- pigmented antibiotic production ([1]; S. coelicolor M512 (ΔredD, ΔactII-ORF4), MM agar, GlcNAc 10 mM): No pigmented antibiotic was observed
- concentration at which the 'GlcNAc effect' was observed ([1]; effect of GlcNAc on antibiotic production and development): > 5 mM
- effect on formation of the complex of DasR with the nagB promoter (EMSA) [2]: it was the only of the compounds tested that prevented the formation of a complex
- effect on formation of the complex of DasR with the nagB promoter (EMSA) ([2]; listed as GlcNAc): no effect
- effect on formation of the complex of DasR with the crr promoter region (EMSA) ([2]; crr promoter, data not shown): it was the only of the compounds tested that prevented the formation of a complex
